The values below come from patent US8772492B2, “Substituted isoquinoline and isoquinolinone derivatives” (Sanofi, priority 2006, dated 2014).

A value given as a limit tells only on which side of the number the result lay.

Broadly, the IC50 is the midpoint of a concentration-inhibition curve.

The target of the assay is T1, Active human recombinant ROCK II (N-terminal His6-tagged recombinant human ROCK-II residues 11-552) (Homo sapiens, UniProt O75116).
T1 construct: recombinant human ROCK-II residues 11-552; His6 (N); purchased Upstate Ltd., Dundee, UK
T1 sequence (O75116 11-552): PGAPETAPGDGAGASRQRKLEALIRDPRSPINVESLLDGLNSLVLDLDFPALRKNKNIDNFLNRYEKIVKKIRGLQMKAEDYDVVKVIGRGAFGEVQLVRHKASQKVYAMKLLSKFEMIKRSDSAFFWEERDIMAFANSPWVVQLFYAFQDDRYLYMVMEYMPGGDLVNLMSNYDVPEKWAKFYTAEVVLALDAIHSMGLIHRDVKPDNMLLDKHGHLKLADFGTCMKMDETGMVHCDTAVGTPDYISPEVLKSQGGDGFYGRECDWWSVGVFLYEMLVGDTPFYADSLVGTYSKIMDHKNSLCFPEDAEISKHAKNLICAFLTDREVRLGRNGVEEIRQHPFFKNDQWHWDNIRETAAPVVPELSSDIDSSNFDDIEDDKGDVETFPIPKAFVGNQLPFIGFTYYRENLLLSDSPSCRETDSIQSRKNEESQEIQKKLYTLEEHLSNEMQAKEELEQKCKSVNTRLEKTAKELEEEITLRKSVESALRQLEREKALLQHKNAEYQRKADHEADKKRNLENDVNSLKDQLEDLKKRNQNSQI
Put plainly: Determination of Rho-kinase activity (Rho-kinase inhibition, Caliper peptide phosphorylation assay). The assay is classed as biochemical. As to conditions: Fluorescein-AKRRRLSSLRA-COOH peptide substrate and ATP, 60 min incubation at 32° C., tested as the form (salt or free base) obtained in the examples, read-out: pIC50 (negative decadal logarithm of the IC50), Rho-kinase inhibition (converted). As for the experimental part: Determination of Rho-Kinase Activity
To measure Rho-kinase inhibition, IC50 values were determined according to the following protocol:
Active human recombinant ROCK II (N-terminal His6-tagged recombinant human ROCK-II residues 11-552) was purchased from Upstate Ltd., Dundee, UK. The peptide substrate, Fluorescein-AKRRRLSSLRA-COOH, was obtained from JPT Peptide Technologies, Berlin, Germany. Adenosine-5′-triphosphate (ATP), bovine serum albumine (BSA), dimethylsulphoxide (DMSO), 4-(2-Hydroxyethyl)piperazine-1-ethanesulfonic acid (Hepes), Brij-35 and dithiothreitol (DTT) were purchased from Sigma-Aldrich, Munich, Germany. Tris(hydroxymethyl)-aminomethane (Tris), magnesium chloride, NaOH, 1M HCl and EDTA were obtained from Merck Biosciences, Darmstadt, Germany. “Complete” protease inhibitor was from Roche Diagnostics, Mannheim, Germany.
Test compounds were diluted to the appropriate concentrations in buffer 1 (25 mM Tris-HCl, pH 7.4, 5 mM MgCl2, 2 mM DTT, 0.02% (w/v) BSA and 3% DMSO). The ROCK II enzyme was diluted to a concentration of 100 ng/ml in buffer 2 (25 mM Tris-HCl, pH 7.4, 5 mM MgCl2, 2 mM DTT and 0.02% (w/v) BSA). The peptide substrate and ATP were diluted to concentrations of 3 μM and 120 μM, respectively, in the buffer 2. Two μl of the compound solution were mixed with 2 μl of the diluted enzyme in a 384-well small volume microtiter plate (Greiner, Bio-One, Frickenhausen, Germany), and the kinase reaction was initiated by addition of 2 μl of the solution containing peptide substrate and ATP. After 60 min incubation at 32° C., the reaction was stopped by addition of 20 μl of a solution containing 100 mM Hepes-NaOH, pH 7.4, 0.015% (v/v) Brij-35, 45 mM EDTA and 0.227% chip coating reagent 1 (Caliper Lifescience Inc, Hopkinton, Mass.). Phosphorylation of the substrate peptide was then detected on a Caliper 3000 instrument essentially as described by Pommereau et al (J. Biomol. Screening 9(5), 409-416, 2004). Separation conditions were as follows: Pressure −1.3 psi, upstream voltage −1562 V, downstream voltage −500 V, sample sip time 200 ms. Positive controls (buffer 1 instead of compound) and negative controls (buffer 1 instead of compound and buffer 2 instead of ROCK II) were run in parallel on each plate.
The following products/compounds were tested in said assay by using the respective form (salt or free base) obtained as in the examples described above and the following activities were measured.
Take `COc1cccc(CNC(=O)[C@H]2CNC[C@@H]2Nc2ccc3cnccc3c2)c1` [Compound 48, (3S,4R)-4-(Isoquinolin-6-ylamino)-pyrrolidine-3-carboxylic acid 3-methoxy-benzylamide]: the IC50 is at most 1000 nM.
In the case of `Cc1cc2c(=O)[nH]ccc2cc1O[C@H]1C[C@H]2CC[C@@H](C1)N2C` [Compound 76, 7-Methyl-6-(8-methyl-8-aza-bicyclo[3.2.1]oct-3-yloxy)-2H-isoquinolin-1-one], the IC50 was at most 1000 nM.
On to `O=C(NCCc1ccccc1)[C@@H]1C[C@@H](Oc2ccc3cnccc3c2)CCN1` [Compound 21, (2S,4S)-4-(Isoquinolin-6-yloxy)-piperidine-2-carboxylic acid phenethyl-amide], for which the IC50 is 1000 to 10000 nM.
The value for `Cc1ccccc1NC(=O)[C@H]1CNC[C@@H]1Nc1ccc2cnccc2c1` [Compound 50, (3S,4R)-4-(Isoquinolin-6-ylamino)-pyrrolidine-3-carboxylic acid o-tolylamide] was at most 1000 nM.
To `O=C(NCc1ccccc1Cl)[C@@H]1C[C@@H](Oc2ccc3cnccc3c2)CCN1` [Compound 22, (2S,4S)-4-(Isoquinolin-6-yloxy)-piperidine-2-carboxylic acid 2-chloro-benzylamide] belongs at most 1000 nM; to `O=C(NCc1ccco1)[C@@H]1C[C@H](Nc2ccc3cnccc3c2)CN1` [Compound 41, (2S,4S)-4-(Isoquinolin-6-ylamino)-pyrrolidine-2-carboxylic acid (furan-2-ylmethyl)-amide], 1000 to 10000 nM; to `C#CCNC(=O)[C@@H]1C[C@@H](Oc2ccc3cnccc3c2)CN1` [Compound 31, (2S,4R)-4-(Isoquinolin-6-yloxy)-pyrrolidine-2-carboxylic acid prop-2-ynylamide], at most 1000 nM.
As to `O=C(NCCc1ccccc1)[C@@H]1C[C@H](Nc2ccc3cnccc3c2)CN1` [Compound 45, (2S,4S)-4-(Isoquinolin-6-ylamino)-pyrrolidine-2-carboxylic acid phenethyl-amide], the IC50 is at most 1000 nM.
Regarding `COCCNC(=O)[C@H]1CNC[C@@H]1Nc1ccc2cnccc2c1` [Compound 49, (3S,4R)-4-(Isoquinolin-6-ylamino)-pyrrolidine-3-carboxylic acid (2-methoxy-ethyl)-amide], the IC50 was 1000 to 10000 nM.
In the case of `O=c1[nH]ccc2cc(OC3(c4ccccc4)CCN(Cc4ccccc4)CC3)c(Cl)cc12` [Compound 69, 6-(1-Benzyl-4-phenyl-piperidin-4-yloxy)-7-chloro-2H-isoquinolin-1-one], the IC50 is 1000 to 10000 nM.
As for `CN1[C@@H]2CC[C@H]1C[C@@H](Oc1cc3cc[nH]c(=O)c3cc1Cl)C2` [Compound 75, 7-Chloro-6-(8-methyl-8-aza-bicyclo[3.2.1]oct-3-yloxy)-2H-isoquinolin-1-one], the IC50 was at most 1000 nM.
Regarding `O=C(NCCO)[C@@H]1C[C@@H](Oc2ccc3cnccc3c2)CN1` [Compound 27, (2S,4R)-4-(Isoquinolin-6-yloxy)-pyrrolidine-2-carboxylic acid (2-hydroxy-ethyl)-amide], the IC50 was 1000 to 10000 nM.
